Results reported in patent US20250262273A1, “MODIFIED CAVEOLIN-1 PEPTIDES FOR THE TREATMENT OF CHRONIC KIDNEY DISEASE” (Rein Therapeutics, Inc., priority 2021, published 2025).
“And” between values parts separate entries of the source, which are not always exact repeats. Identical values can stand only once. Non-standard residues stand in square brackets, D forms with d.

Legend:
[1] = system: bleomycin-treated aged male mice; experiment: Bleomycin model of lung fibrosis in aged mice, Study 1 (Total Collagen Assay); type: in vivo, mouse; conditions: bleomycin 4 U/kg intratracheal, mice 74 to 76 weeks-old, dry powder inhalation, compared to control peptide
From the text: (§1) The objective of this study was to evaluate the modified Cav-1 peptide CSP-7 in a bleomycin model of idiopathic pulmonary fibrosis and acute respiratory distress syndrome (ARDS). Aged male mice were selected to closely match the population of humans most vulnerable to ARDS.
Aged male mice, which have a higher burden of senescent cells and therefore less regenerative potential, were used to test the efficacy of CSP-7 (SEQ ID NO: 3). Mice were between 74 to 76 weeks-old at the time of intratracheal bleomycin installation (4 U/kg body weight; n=5-8 mice/group). The Total Collagen Assay (QuickZyme Biosciences) was used to assess total collagen in lung tissue, which first hydrolyzes proteins in the lung homogenate then oxidizes hydroxyproline and stains.

[2] = system: BLM-treated aged mice; experiment: Bleomycin model of lung fibrosis in aged mice, Study 2; type: in vivo; conditions: BLM 8 U/kg intratracheal, 73-74 week-old mice, 0.5 mg/mouse dry powder inhalation from day 14, sacrifice day 21, compared to control peptide
Description: as §1
Bleomycin (BLM, 8 U/kg) was administered intratracheally to 73-74 week-old mice (n=52) expecting approximately 50% loss of mice due to BLM-induced lung injury. On day 14 post-instillation, CSP-7 and a control peptide (CP) was administered to mice via dry powder inhalation (DPI) or intraperitoneal injection (IP) as shown in Table B below. On day 21 post-instillation, mice were sacrificed and blood and tissues were collected for analysis. Statistics were performed using Dunnett's multiple comparison test.

[3] = system: Col4a3−/− mice on a 129S1/SvlmJ background; experiment: Col4a3−/− mouse model of Alport syndrome, Study 1: two weeks of treatment; type: in vivo; conditions: for immunofluorescence staining of collagen I and nidogen on kidney tissue / immunofluorescence staining of collagen I and αSMA on kidney tissue: 0.0022 mg/g i.p. daily for 2 weeks, same finding in saline-treated mice
From the text: (§2) The objective of this study was to evaluate the efficacy of the modified Cav-1 peptide APi2355 in ameliorating kidney fibrosis and disease using the Col4a3−/− mouse model of Alport syndrome. Alport syndrome mice (knockouts) have reduced Cav-1 expression in glomerulae tubules and develop glomerular fibrosis.
Col4a3−/− on the 129S1/SvlmJ develop end-stage renal disease at a faster rate compared to Col4a3−/− mice on the C57BL/6 background. Five week-old (Cohort 2) and 6 week-old (Cohort 1) Col4a3−/− mice on a 129S1/SvlmJ background were intraperitoneally injected daily with APi2355 (SEQ ID NO: 8, 0.0022 mg/g body weight) or with normal saline for 2 weeks. Urine was collected prior to treatment and on the day of sacrifice to monitor for glomerular permselectivity by measuring albumin to creatinine (A/C) ratios. Blood was collected on the day of sacrifice to monitor for glomerular filtration rate by blood urea nitrogen (BUN) assay and kidney tissue was collected following sacrifice to assess for renal injury and fibrosis. Mouse identification numbers were used to differentiate treatment groups.

[4] = system: Col4a3−/− mice on a 129S1/SvlmJ background; experiment: Col4a3−/− mouse model of Alport syndrome, Study 2: four weeks of treatment; type: in vivo; conditions: for Moderately Sclerotic Glom / Severely Sclerotic Glom / Moderately Sclerotic Glom (%) / Sclerotic Glom (%) / Severely Sclerotic Glom (%): 8 week-old, 4 weeks daily i.p. 0.0022 mg/g; for Moderately Sclerotic Glom / Severely Sclerotic Glom: count per individual mouse; for Moderately Sclerotic Glom (%) / Sclerotic Glom (%) / Severely Sclerotic Glom (%): per individual mouse
Description: as §2
Four week-old Col4a3−/− mice on a 129S1/SvlmJ background were intraperitoneally injected daily with APi2355 (SEQ ID NO: 8, 0.0022 mg/g body weight) or with normal saline for 4 weeks. Urine was collected prior to treatment at 4 weeks-old and at 6, 7, and 8-weeks-old following treatment to monitor for glomerular permselectivity by measuring albumin to creatinine (A/C) ratios. Blood was collected prior to treatment at 4 weeks-old and at 6 and 8 weeks-old following treatment to monitor for glomerular filtration rate using the BUN assay and kidney tissue was collected following sacrifice to assess for renal injury and fibrosis. Mouse identification numbers were used to differentiate treatment groups.

[5] = Cohort 1 (treatment start 6 weeks-old)
[6] = Cohort 2 (treatment start 5 weeks-old)
[7] = treatment starting at 4 weeks of age, 4 weeks, vs saline

## FTTFTVT (Modified Caveolin-1 peptide) [CSP-7, seven amino acid fragment of the human CSD of caveolin-1]
[1]
  total collagen in the lung: reduction in total collagen
[2]
  total collagen in the lung: reduction in total collagen

## Ac-aaEGKASFTTFTVTKGSaa-NH2 (Ac-[dA][dA]EGKASFTTFTVTKGS[dA][dA]-NH2; SMILES CC(=O)N[C@H](C)C(=O)N[C@H](C)C(=O)N[C@@H](CCC(=O)O)C(=O)NCC(=O)N[C@@H](CCCCN)C(=O)N[C@@H](C)C(=O)N[C@@H](CO)C(=O)N[C@@H](Cc1ccccc1)C(=O)N[C@H](C(=O)N[C@H](C(=O)N[C@@H](Cc1ccccc1)C(=O)N[C@H](C(=O)N[C@H](C(=O)N[C@H](C(=O)N[C@@H](CCCCN)C(=O)NCC(=O)N[C@@H](CO)C(=O)N[C@H](C)C(=O)N[C@H](C)C(N)=O)[C@@H](C)O)C(C)C)[C@@H](C)O)[C@@H](C)O)[C@@H](C)O) [APi2355, modified Cav-1 peptide]
[3]; [5]
  immunofluorescence staining of collagen I and nidogen on kidney tissue: additional staining in sclerotic glomeruli
  immunofluorescence staining of collagen I and αSMA on kidney tissue: additional staining in sclerotic glomeruli
[3]; Cohort 1 and Cohort 2, 2 weeks of treatment, same in saline-treated mice
  kidney sclerosis, overall: severe sclerosis in the interstitium and many sclerotic glomeruli
[3]; [6]
  immunofluorescence staining of collagen I and nidogen on kidney tissue: additional staining in sclerotic glomeruli
  immunofluorescence staining of collagen I and αSMA on kidney tissue: additional staining in sclerotic glomeruli
[4]; female Col4a3−/− mice
  Moderately Sclerotic Glom: 0 and 1 (2×)
  Severely Sclerotic Glom: 4
  Moderately Sclerotic Glom (%): 0.0% and 2.0% and 2.1%
  Sclerotic Glom (%): 7.4% and 9.8% and 10.6%
  Severely Sclerotic Glom (%): 7.4% and 7.8% and 8.5%
[4]; females, treatment starting at 4 weeks of age, 4 weeks, vs saline
  percentage of sclerotic glomeruli as assayed by collagen I deposition: reduced the percentage of sclerotic glomeruli in females
[4]; male Col4a3−/− mouse
  Moderately Sclerotic Glom: 6
  Severely Sclerotic Glom: 21
  Moderately Sclerotic Glom (%): 15.0%
  Sclerotic Glom (%): 67.5%
  Severely Sclerotic Glom (%): 52.5%
[4]; mouse model of Alport syndrome, overall conclusion
  glomerular fibrosis: reduced glomerular fibrosis
[4]; [7]
  progression of BUN: did not slow the progression
  progression of albuminuria: did not slow the progression
